From patent publication US12447198B2, “Peptides and fragments for treating diabetes and associated metabolic diseases” (Betavive Ltd., priority 2021, dated 2025)
“Also recorded” adds a separate entry of the source.

How the values were obtained:
NOD mice [1] = experiment: Incidence of spontaneous autoimmune type 1 diabetes / normoglycemia in NOD mice; format: in vivo, mouse
Protocol: Non-Obese Diabetic (NOD) mice are a polygenic model for spontaneous autoimmune type 1 diabetes (T1D). NOD mice have an elevated risk for development of autoimmune type 1 diabetes. Thus, NOD mice were used to determine whether treatment IGF-2 reduces spontaneous development of type 1 diabetes.
In this experiment, one group of NOD mice (right panel) was injected with 3000 μg/kg of IGF-2 on each of 76 consecutive days, and a second group of NOD mice (left panel) was injected with saline. […] More specifically, at the end of the 76 days of treatment, only two of the treated mice had developed high glucose levels.
FIG. 30A depicts how many NOD mice have developed autoimmune type I diabetes during an initial 66 days of treatment with IGF-2, and at various intervals post-treatment. In this experiment, one group of NOD mice was injected with 3000 μg/kg of IGF-2 on each of 66 consecutive days, and a second group of NOD mice was injected with saline.
(§1) In one exemplary experiment, NOD mice were treated with a 3000 μg/kg daily doses of IGF-2 for 150 days. ⅘ of the treated mice maintained normoglycemia compared to ¼ of the control mice. In another exemplary experiment, NOD mice were treated with a 3000 μg/kg daily dose of IGF-2 for 75 days with follow-up glucose measurements taken for an additional 90 days (during which IGF-2 was not administered). ⅝ of the treated mice maintained normoglycemia compared to 2/11 of the control mice.

db/db mice = experiment: Histopathology and immunohistochemical staining of pancreas islet cells in db/db mice; format: in vivo, mouse; conditions: sacrificed 70 days after the end of treatment
Protocol: FIG. 27 provides results of histopathology and immunohistochemical studies showing the number of pancreas islet cells that test positive for insulin (left panel) and glucagon (right panel) in db/db mice. In this experiment, one group of db/db mice was injected with 12000 μg/kg of IGF-2 on each of 70 consecutive days, a second group of db/db mice was injected with saline, and a third group of db/db mice was a naïve control group. The mice were sacrificed for pathology 70 days after the end of the initial 70 day treatment.
In this experiment, one group of db/db mice (labeled X4) was injected with 12000 μg/kg of IGF-2 on each of 70 consecutive days, a second group of db/db mice (labeled X1) was injected with 3000 μg/kg of IGF-2 on each of 70 consecutive days, and a third group of db/db mice (labeled control) was injected with saline. The mice were sacrificed for pathology 70 days after the end of the initial 70 day treatment. […] The control panels show a positive stain for insulin, which increases in intensity in the 3000 μg/kg/day mice, and increases again in intensity in the 12,000 μg/kg/day mice.

C57BL/6 STZ mice = experiment: Fasting blood glucose in STZ-induced diabetic C57BL/6 mice treated with IGF-2; format: in vivo, mouse; conditions: for fasting glucose levels during the ten-day course of treatment: day 0 and ten more times within ten days
Protocol: C57BL/6 mice male 8-10 weeks old, housed under conventional conditions and allowed laboratory chow and water ad libitum, were used in the experiments described below in Examples 3-4. Within each experiment, animals were matched by age and weight (20-24 g) and randomly divided into groups to receive different treatments. Diabetes was induced by one or more doses of streptozotocin (STZ).
Briefly, animals received intraperitoneally (i.p.) 100 mg/kg (b.w.) STZ (Cayman Chemical, Ann Arbor, MI) dissolved in citrate buffer on pH 4.5 (this procedure was repeated if needed). Clinical diabetes was defined by hyperglycemia (blood glucose levels >300 mg/dl in fasted animals). Fasting blood glucose levels were measured three times per week and samples were taken from the tail tip after starvation for 6 hours throughout the experiment.
Fasting blood glucose levels (mg/dL) were determined using the Accu-Chek Performa glucometer (Roche Diagnostics, Mannheim, Germany). After approximately two weeks of stable hyperglycemia, C57BL/6 STZ mice received exogenous injections of recombinant human IGF-2 (0.3-12 mg/kg/day injection) intraperitoneally for 5-10 consecutive days. During post-treatment follow-up period and upon termination, mice were tested for: fasting glucose, body weight, glucose tolerance test (IPGTT), serum C-peptide level, serum insulin level, and full blood and histological analysis (CBC, Chemistry, Insulin IHC and H&E).

[2] = test system: human pancreatic islet cells; experiment: Insulin secretion of human pancreatic islet cells in response to a glucose pulse; format: cell-based; conditions: 50 nM for four days
β-MIN6 cells = experiment: Insulin secretion of β-MIN6 cells following glucose induction; format: cell-based, mouse; conditions: 1 week treatment; IGF-2 5 nM, 20 nM, 80 nM
Text: β-MIN6 cells serve as an in vitro model of mouse pancreatic islets. β-MIN6 cells were used as an in vitro model to measure the effects of treatment with IGF-2.

NOD mice [3] = experiment: Serum insulin / insulin secretion in NOD mice treated with IGF-2; format: in vivo, mouse
Protocol: FIG. 30B depicts the levels of serum insulin in NOD mice measured two weeks after a 66 day course of treatment using IGF-2. Mice that were treated with 3000 μg/kg/day of IGF-2 had serum insulin levels that were about 4-fold higher than the control mice.
as §1

mice = experiment: Blood glucose concentration kinetics of IGF-2 vs. insulin in a glucose tolerance test; format: in vivo, mouse; conditions: IGF-2 800 μg/kg
Text: IGF-2 therefore provides an effect that mimics insulin within the body, and that effect is referred to herein as an “insulinomimetic” effect. […] In this example, administering IGF-2 can provide better results than administering insulin with respect to blood glucose levels, even when only a single dose was used. Without being bound by this theory, it is possible that the IGF-2 combines with a number of binding proteins in the blood and its active free form is then released slowly from the complex.

STZ-treated mouse islets = experiment: MTT viability of STZ-treated mouse islets; format: cell-based; conditions: increasing concentrations
Text: Yellow dye MTT is converted to a purple dye by mitochondrial reductase in viable cells. Therefore, the amount of purple dye present determined by measuring optical density of cells at 570 nm serves as a measurement of cell viability.

insulin-like growth factor 2 [IGF-2] was tested, and the “fraction of the treated mice that maintained normoglycemia” value (NOD mice [1]; 3000 μg/kg daily dose for 75 days, follow-up for an additional 90 days, control 2/11) was “⅝”, the “fraction of the treated mice that maintained normoglycemia” value (NOD mice [1]; 3000 μg/kg daily doses for 150 days, control ¼) was “⅘” and the “incidence of spontaneous autoimmune type 1 diabetes” value (NOD mice [1]; 3000 μg/kg on each of 66 consecutive days and post-treatment, vs saline control) was “significantly reduced”. The “incidence of spontaneous autoimmune attack” value (NOD mice [1]; 3000 μg/kg on each of 76 consecutive days vs saline) was “reduced dramatically”, the “number of treated mice that had developed high glucose levels” value (NOD mice [1]; 3000 μg/kg, at the end of the 76 days of treatment) was “two” and the “increase in the number of insulin-positive cells” value (db/db mice; 12000 μg/kg on each of 70 consecutive days) was “more than 50%”. For the same substance, the “insulin positive cells (immunohistochemical staining)” value (db/db mice; 3000 and 12000 μg/kg on each of 70 consecutive days vs saline) was “increase in insulin positive cells in a dose-dependent manner”, the hypoglycemia (C57BL/6 STZ mice; 3000 μg/kg/day, also when the dose was increased to 12,000 μg/kg/day) was “Hypoglycemia was never observed” and the hypoglycemia (C57BL/6 STZ mice; 10:1 ratio of dosages, between 3000 μg and 300 μg) was “did not cause hypoglycemia”. For the same substance, the “fasting glucose levels during and shortly after the course of treatment” value (C57BL/6 STZ mice; IGF-2 300 μg/kg/day, initial dose and ten additional doses over ten days, STZ mice B5, B6, B3, B4) was “did not return to a normal range; also recorded: temporary drop in fasting glucose levels from days 10-25”, the “long-term results on fasting glucose levels” value (C57BL/6 STZ mice; IGF-2 300 μg/kg/day, STZ mice B5, B3, B4) was “long-term results were not observed” and the “fasting glucose levels during the ten-day course of treatment” value (C57BL/6 STZ mice; IGF-2 800 μg/kg/day, STZ mice A8, A6, F3, F4) was “returned to a normal range”. For the same substance, the “blood glucose levels remaining, mice with full or almost full resolution” value (C57BL/6 STZ mice; IGF-2 800 μg/kg/day, half the mice (FIGS. 5A and 5B)) was ~200 mg/dL, the “fasting glucose levels after the course of treatment (long term)” value (C57BL/6 STZ mice; IGF-2 800 μg/kg/day, mice A8 and A6) was “remained in the normal range until the end of the experiment; also recorded: remained in the normal range until STZ was provided again” and the “fasting glucose levels after the ten day course of injections ended” value (C57BL/6 STZ mice; IGF-2 800 μg/kg/day, mice F3 and F4) was “around 400”. For the same substance, the “blood glucose levels remaining, mice with partial improvement” value (C57BL/6 STZ mice; IGF-2 800 μg/kg/day, the remaining mice (FIGS. 6A and 6B)) was ~400 mg/dL, the “fasting glucose levels during the ten-day course of treatment” value (C57BL/6 STZ mice; IGF-2 3000 μg/kg/day, STZ mice C1, C8, C6, F1) was “returned to a normal range” and the “long-term improvements in blood glucose levels” value (C57BL/6 STZ mice; IGF-2 12,000 μg/kg daily on each of 12 consecutive days) was “long-term improvements in blood glucose levels were obtained”. For the same substance, the “long-term improvements in blood glucose levels” value (C57BL/6 STZ mice; IGF-2 12,000 μg/kg daily on only 5 consecutive days) was “long-term improvements in blood glucose levels were not obtained”, the “time to reduce the blood glucose level to a normal range” value (C57BL/6 STZ mice; daily intraperitoneal 3000 μg/kg/day, averaged over four mice) was 3 to 5 days and the “blood glucose level reached (normal range), averaged over four mice” value (C57BL/6 STZ mice; daily intraperitoneal 3000 μg/kg/day, maintained for the remainder of the 10 day window) was 100 to 200 mg/dL. The “time post treatment for which normal blood glucose levels are maintained” value (C57BL/6 STZ mice; four mice, single 10 day course at 3000 μg/kg/day, long term follow up) was “at least 300 days”, the “increase of insulin secretion in response to a glucose pulse compared to untreated cells” value [2] was ~50% and the “insulin secretion following glucose induction” value (β-MIN6 cells) was “increases insulin secretion (following glucose induction) in a dose-dependent manner”. For the same substance, the “serum insulin levels relative to the control mice” value (NOD mice [3]; 3000 μg/kg/day, two weeks after a 66 day course of treatment) was “about 4 fold”, the “average insulin secretion of the treated mice” value (NOD mice [3]; both NOD experiments of Example 14, 3000 μg/kg daily) was “five times greater than the control mice” and the “time at which glucose levels began to rise relative to disappearance of IGF-2 from the blood” value (mice; compared with FIG. 13) was “two hours after the IGF-2 was no longer detectable in the blood”. For the same substance, the “glucose level after administration” value (mice; glucose tolerance test in mice, insulin 1 unit per kg) was “the glucose level decreased”, the “time after which the recovery in glucose levels began” value (mice; single dose, insulin 1 unit per kg) was “after six hours” and the “mouse islet viability (MTT, optical density at 570 nm)” value (STZ-treated mouse islets) was “increased in a dose dependent manner”.
